Measurements from PubChem BioAssay AID1996.
In brackets after ≈: the same amount, converted by molar mass.

Settings: buffer; pH 7.4; 200.0 µM
In the case of `CC(C)(C)c1ccc(C(=O)NC2CCS(=O)(=O)C2)cc1` (stereo not drawn), the solubility kinetic is reported as > 44.3 µg/mL.
For `Cc1ccc[n+](CC(=O)Nc2ccc(Cl)c([N+](=O)[O-])c2)c1.[Cl-]`, the solubility kinetic was > 51.3 µg/mL.
With `Cc1ccc2oc(C(=O)NCc3ccccc3)cc(=O)c2c1` the solubility kinetic was < 0.6 µg/mL.
With `CCN1CCN(CCC(=O)Nc2ccc(C)cc2)CC1.Cl` the solubility kinetic was > 46.8 µg/mL.
With `COc1ccc(OC)c(/C=C/c2ccc3cccc(O)c3n2)c1` the solubility kinetic was < 0.7 µg/mL.
For `Cn1c(-c2ccncc2)nc2ccccc21`, the solubility kinetic was > 31.4 µg/mL.
Compound `CSc1ccccc1NC(=O)Nc1ccccc1Cl` has a solubility kinetic of 1.7 µg/mL (≈ 5.81 µM).
Compound `CC1C(Br)C(=O)NC(=O)N1Cc1ccccc1` (stereo not drawn) has a solubility kinetic of 41.4 µg/mL (≈ 139 µM).
For `O=C1NC(=O)N(CC2CCCO2)C(=O)/C1=C/c1cccs1` (stereo not drawn), the solubility kinetic was > 46 µg/mL.
For `CCCSc1ccc2nc(NC(=O)OC)[nH]c2c1`, the solubility kinetic was 1.4 µg/mL (≈ 5.28 µM).
For `Fc1cccc(/C=N/Nc2nccnc2Cl)c1`, the solubility kinetic was > 37.6 µg/mL.
Compound `CCc1ccc(OC(=O)c2cccnc2)cc1` has a solubility kinetic of 26.8 µg/mL (≈ 118 µM).
For `Cc1ccc(C(=O)NCCCNC(=O)c2cccnc2)cc1`, the solubility kinetic was > 44.6 µg/mL.
In the case of `CC[C@H](C)[C@H](NC(N)=O)C(=O)NCCc1ccc(OC)c(OC)c1`, the solubility kinetic is reported as > 50.6 µg/mL.
In the case of `CC(=O)NC(CC(=O)N1CCN(C(C)=O)CC1)c1ccccc1` (stereo not drawn), the solubility kinetic is reported as > 47.6 µg/mL.
`Cc1cccc(CN2CCN(c3ccc(Cl)cc3)CC2)c1` showed a solubility kinetic of 2 µg/mL (≈ 6.65 µM).
For `O=C(NC1CC1)c1cc(Cl)nc2ccccc12`, the solubility kinetic was > 37 µg/mL.
Work on `CCN(CCO)c1ccc(N=Cc2c(O)n(C)c(=S)[nH]c2=O)cc1` yielded a solubility kinetic of 3.2 µg/mL (≈ 9.18 µM).
For `NC(=O)NC(=O)COC(=O)c1ccc(OC(F)F)cc1`, the solubility kinetic was 9.9 µg/mL (≈ 34.4 µM).
With `Cc1sc(NC(=S)NC(=O)c2ccco2)c(C#N)c1C` the solubility kinetic was 1.1 µg/mL (≈ 3.6 µM).
Work on `O=C(COc1ccccc1Cl)Nc1ccc2[nH]c(=O)[nH]c2c1` yielded a solubility kinetic of 2 µg/mL (≈ 6.29 µM).
`CC(=O)c1c(C)[nH]c(C(=O)OCC(=O)N(Cc2ccccc2)C(C)(C)C)c1C` showed a solubility kinetic of 12 µg/mL (≈ 31.2 µM).
In the case of `O=C(CN1C(=O)NC2(CCc3ccccc32)C1=O)c1ccc(Br)cc1` (stereo not drawn), the solubility kinetic is reported as 4.4 µg/mL (≈ 11 µM).
For `Cn1c(=O)c2c(nc3n2CC(COc2ccccc2)O3)n(C)c1=O` (stereo not drawn), the solubility kinetic was > 49.2 µg/mL.
With `CN(C)CCO[C@@H](c1ccc(Cl)cc1)c1ccccn1.O=C(O)/C=C\C(=O)O` the solubility kinetic was > 61 µg/mL.
For `CC1CN(c2nc(Nc3ccccc3F)nc(N)c2[N+](=O)[O-])CC(C)O1` (stereo not drawn), the solubility kinetic was > 54.4 µg/mL.
With `CCOc1ccc(NC(C)=O)cc1[N+](=O)[O-]` the solubility kinetic was > 33.6 µg/mL.
For `Cc1cc2c([nH]c3ccccc32)c(C)[nH+]1.[Cl-]`, the solubility kinetic was 26.2 µg/mL.
For `COc1cccc(C(=O)Nc2ccccc2-c2ccccc2)c1`, the solubility kinetic was 24 µg/mL (≈ 79.1 µM).
With `Nc1nc2c(Cl)ccc(Cl)c2s1` the solubility kinetic was 3.2 µg/mL (≈ 14.6 µM).
In the case of `O=C(COc1ccc(S(=O)(=O)N2CCOCC2)cc1)NC1CC1`, the solubility kinetic is reported as > 51.1 µg/mL.
Work on `O=C1CSCC(=O)N1Cc1ccc(Cl)cc1Cl` yielded a solubility kinetic of 38.2 µg/mL (≈ 132 µM).
With `Cc1ccccc1NC(=O)Cc1cccc(C(F)(F)F)c1` the solubility kinetic was 5.3 µg/mL (≈ 18.1 µM).
With `N#Cc1cnn2cc(CCN3CCOCC3)c(-c3ccc(F)cc3)nc12` the solubility kinetic was > 52.7 µg/mL.
For `Cc1cccc(C(=O)OCC(=O)N2CCCCCC2)c1`, the solubility kinetic was > 41.3 µg/mL.
In the case of `O=C(Nc1ccc(Cl)cc1)c1csc(Cc2ccccc2)n1`, the solubility kinetic is reported as 1.1 µg/mL (≈ 3.35 µM).
`Cn1c(N)c(C(=O)COC(=O)c2ccc3ccccc3c2)c(=O)n(C)c1=O` gave a solubility kinetic of 3.8 µg/mL (≈ 10.3 µM).
`Cc1cc(C)c(S(=O)(=O)NC2CC(C)(C)NC(C)(C)C2)cc1C` showed a solubility kinetic of 33.5 µg/mL (≈ 99 µM).
With `Cc1cc(C(=O)NCC(c2ccco2)N(C)C)ccc1[N+](=O)[O-]` (stereo not drawn) the solubility kinetic was 39.7 µg/mL (≈ 125 µM).
`CSc1ccc(CNCC2CCCO2)cc1.Cl` (stereo not drawn) gave a solubility kinetic of 37.1 µg/mL.
For `N/C(=N\O)c1ccccc1-n1cccc1`, the solubility kinetic was > 30.2 µg/mL.
In the case of `Cc1cc(C)c(C(=O)CSc2nc(C)cc(=O)[nH]2)c(C)c1`, the solubility kinetic is reported as 14 µg/mL (≈ 46.3 µM).
Work on `CCc1ccc(N2CN(Cc3ccco3)CNC2=S)cc1` yielded a solubility kinetic of 11.9 µg/mL (≈ 39.5 µM).
Compound `Cc1ccc(C(=O)NCCONC(=O)c2ccc(C)cc2)cc1` has a solubility kinetic of 45.6 µg/mL (≈ 146 µM).
For `COc1cc(CCC(=O)Nc2nccs2)cc(OC)c1OC`, the solubility kinetic was > 48.4 µg/mL.
With `CC(C)(C)c1ccc(C(=O)O/N=C(\N)c2ccccc2)cc1` the solubility kinetic was 1.1 µg/mL (≈ 3.71 µM).
With `O=C(Cc1ccc(O)cc1)N/N=C/c1cccnc1` the solubility kinetic was > 38.3 µg/mL.
For `CC(C)Cn1c(-c2ccc(Br)cc2)c[nH]c1=S`, the solubility kinetic was 5.7 µg/mL (≈ 18.3 µM).
